In general, EC50 refers to the concentration needed to bring the measured effect to its halfway point. Read a high EC50 as lower potency in that assay. The IC50 is the point on the concentration scale where inhibition reaches its midpoint.

Data set [1] deals with E-box-LUC reporter. The data set is described as follows: E-box-LUC luciferase reporter assay, dose-response in stably transfected NIH3T3 cells. The class given is cell-based. Particulars: Mus musculus, E-box-LUC reporter activity, NIH3T3, 36 h; for Emax: maximum response as a percentage of the vehicle-treated group, read-out: Max (%). As for the experimental part:
Materials for cell culture were purchased from Thermo Fisher Scientific, unless otherwise stated. NIH3T3 and HEK293T cells were maintained in Dulbecco’s modified Eagle medium supplemented with 5% fetal bovine serum and 100 U/mL penicillin/streptomycin in a humidified atmosphere containing 5% CO2 at 37 °C. Plasmids and transfection experiments for luciferase reporter assay were described in our previous report. For dose-response experiments, mouse NIH3T3 cells stably transfected with an E-box-LUC reporter were plated in 12-well culture plates, treated as indicated for 36 h, and subjected to luciferase assay. For transient transfections, we seeded HEK293T cells in 12-well culture plates and used Lipofectamine® 3000 reagent to transfect cells with the E-box-LUC reporter and the indicated clock gene expression plasmids together with a thymidine kinase promoter-driven Renilla luciferase (pRL-TK) plasmids. We kept total DNA levels constant by adding an empty pcDNA3.1 plasmid. After 24 h of transfection, cells were treated with vehicle (0.1% DMSO) or chemical compounds at various concentrations for 36 h. Cell extracts were prepared by incubating cells in 0.3 mL reporter lysis buffer for 15 min at room temperature. Luciferase activity was measured with a commercial dual luciferase assay kit (Promega, Madison, WI, USA).
(§1) The EC50 values for luciferase reporter assay were calculated based on a logistic four-parametric equation using the mean values of intrinsic activation (SigmaPlot 10.0; Systat Software Inc., San Jose, CA, USA). The IC50 and t1/2 values for the cytochrome P450 inhibition assay and metabolic stability test were calculated by WinNonlin software (Pharsight, Mountain View, CA, USA). Pharmacokinetic parameters were calculated using non-compartmental analysis (WinNonlin v.8.3; Pharsight, Mountain View, CA, USA). Kinetic and equilibrium constants for SPR analysis were obtained by global fitting of the Langmuir 1:1 bimolecular kinetic model (ProteOn Manager v.3.1.0.6, Bio-Rad, Hercules, CA, USA). Circadian molecular clock-enhancing activities were expressed as means ± SE and statistically evaluated by Student’s t-test or one-way analysis of variance (ANOVA) followed by Newman–Keuls multiple comparison test for post hoc comparisons. The significance level for the analyses was set at p < 0.05.
In general terms: In a reporter assay the amount or activity of a reporter protein is the signal.

Data set [2] addresses T1, CYP1A2 (Homo sapiens, UniProt P05177).
T1 construct: pooled human liver microsomes (HLMs, XTreme 200, XenoTech, Lenexa, KS, USA); tissue XenoTech XTreme 200; host or cells: pooled human liver microsomes
T1 sequence (P05177 1-516): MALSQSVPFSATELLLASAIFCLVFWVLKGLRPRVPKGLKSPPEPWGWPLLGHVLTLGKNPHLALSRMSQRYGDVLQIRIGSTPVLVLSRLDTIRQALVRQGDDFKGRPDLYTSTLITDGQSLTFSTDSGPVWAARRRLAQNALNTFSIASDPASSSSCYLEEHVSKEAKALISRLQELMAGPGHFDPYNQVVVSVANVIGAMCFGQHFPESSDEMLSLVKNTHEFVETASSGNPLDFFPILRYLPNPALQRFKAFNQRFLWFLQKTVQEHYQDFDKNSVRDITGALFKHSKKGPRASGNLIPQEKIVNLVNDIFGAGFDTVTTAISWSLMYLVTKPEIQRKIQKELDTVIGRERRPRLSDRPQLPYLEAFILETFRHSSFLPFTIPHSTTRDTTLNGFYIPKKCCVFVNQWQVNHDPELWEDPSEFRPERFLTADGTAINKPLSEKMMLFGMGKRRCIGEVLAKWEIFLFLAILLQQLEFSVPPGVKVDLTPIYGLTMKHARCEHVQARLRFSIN
Briefly: Cytochrome P450 inhibition assay (cocktail method, human liver microsomes), phenacetin O-deethylation. In kind it is in vitro ADME. The protocol: (§2) The inhibitory effects of KS15 and compound 5d on the metabolism of five cytochrome P450 (P450) probe substrates were evaluated using previous methods with slight modifications. The following P450 probe substrates were used: phenacetin (100 μM) for CYP1A2, tolbutamide (100 μM) for CYP2C9, omeprazole (20 μM) for CYP2C19, dextromethorphan (5 μM) for CYP2D6, and midazolam (5 μM) for CYP3A. Incubation mixtures containing pooled human liver microsomes (HLMs, XTreme 200, XenoTech, Lenexa, KS, USA), P450 probe substrates, and KS15 or compound 5d (final concentrations: 0, 0.5, 2, 5, 20, and 50 μM) were preincubated for 5 min at 37 °C. […] After centrifugation at 18,000× g (5 min, 4 °C), supernatant aliquots were analyzed by liquid chromatography-tandem mass spectrometry (LC-MS/MS). […]
(§3) All metabolites and IS were separated on a Kinetex C18 column (100 mm × 2.1 mm, 2.6 μm ID., Phenomenex, Torrance, CA, USA) and analyzed using an LC-MS/MS system (LCMS 8060, Shimadzu, Tokyo, Japan) equipped with an electrospray ionization (ESI) interface. […]
(§4) The EC50 values for luciferase reporter assay were calculated based on a logistic four-parametric equation using the mean values of intrinsic activation (SigmaPlot 10.0; Systat Software Inc., San Jose, CA, USA). […] Pharmacokinetic parameters were calculated using non-compartmental analysis (WinNonlin v.8.3; Pharsight, Mountain View, CA, USA). […]
On the technique in general: Liver microsomes are a subcellular fraction often used to study metabolism.

The nature of data set [3]: Metabolic stability test in pooled human liver microsomes. The class given is in vitro ADME. Particulars: pooled HLMs 1.0 mg/mL, 1 μM compound, NADPH generating system, read-out: t1/2 in HLMs. The protocol:
The metabolic stability of KS15, 5d, or 2d was evaluated using pooled HLMs. Pooled HLMs (1.0 mg/mL), a potassium phosphate buffer, and a test compound (1 μM) were pre-incubated (37 °C, 5 min). To initiate the reaction, the NADPH generating system was added to the samples and incubated for specific time points (0, 5, 15, 20, 45, and 60 min). Then, aliquots were taken and reactions terminated in acetonitrile containing IS. After centrifugation, supernatants were analyzed using LC-MS/MS to determine KS15, 5d, or 2d concentrations in samples. Analyte separation was performed using a Kinetex C18 column (100 mm × 2.1 mm, 2.6 μm ID., Phenomenex). The mobile phase solvent A was 0.1% formic acid in water, and solvent B was 0.1% formic acid in acetonitrile. Gradient separation was performed as follows: 0–3 min (10–90% B) and 3.1–8 min (10% B). The flow rate was 0.2 mL/min, and the run time was 8 min for each sample. Electrospray ionization was conducted in positive ion mode at 4 kV. […] Quantitation was performed in the SRM of the [M+H]^+ ion and the related product ion for each test compound and IS: KS-15 (m/z 420 > 169, CE 30 eV), 5d (m/z 359 > 206, CE 20 eV), 2d (m/z 345 > 192, CE 22 eV), and IS (m/z 295 > 100, CE 17 eV).
as §1, with “Kinetic and equilibrium constants for SPR analysis were obtained by global fitting of the Langmuir 1:1 bimolecular kinetic model (ProteOn Manager v.3.1.0.6, Bio-Rad, Hercules, CA, USA).” left out, “The significance level for the analyses was set at p < 0.05.” left out

Data set [4] concerns CYP3A. Briefly: Cytochrome P450 inhibition assay (cocktail method, human liver microsomes), midazolam 1'-hydroxylation. The class given is in vitro ADME. Particulars: pooled human liver microsomes, probe midazolam (5 μM). The protocol: as §2, §3, §4
Data set [5] addresses T2, CYP2D6 (Homo sapiens, UniProt P10635).
T2 construct: pooled human liver microsomes (HLMs, XTreme 200, XenoTech, Lenexa, KS, USA); tissue XenoTech XTreme 200; host or cells: pooled human liver microsomes
The data set is described as follows: Cytochrome P450 inhibition assay (cocktail method, human liver microsomes), dextromethorphan O-demethylation. The class given is in vitro ADME. As for the experimental part: as §2, §3, §4

Data set [6] concerns Per2-luciferase knock-in (Per2-Luc-KI) fibroblast cultures. Briefly: Real-time bioluminescence monitoring of DEX-synchronized Per2-Luc-KI fibroblast cultures. The class given is cell-based, mouse. Particulars: 20 μM, DEX-synchronized Per2-Luc-KI fibroblasts. The protocol:
For real-time bioluminescence monitoring, we used mouse embryonic fibroblast (MEF) cultures established from Per2-LUC-KI mice. […] The medium was then replaced with a recording medium containing 0.1 mM D-luciferin (Promega) along with vehicle (0.1% DMSO), KS15 (20 μM), 5d (20 μM), or 2d (20 μM). Light emission for 2 min at intervals of 20 min was integrated using a dish-type wheeled luminometer (Kronos-Dio, ATTO Cooperation, Tokyo, Japan). Background-subtracted bioluminescence profiles were analyzed using Cosinor analysis software (available at http://www.circadian.org, last accessed on 19 May 2021).
as §1

Data set [7] addresses T3, CYP2C19 (Homo sapiens, UniProt P33261).
T3 construct: pooled human liver microsomes (HLMs, XTreme 200, XenoTech, Lenexa, KS, USA); tissue XenoTech XTreme 200; host or cells: pooled human liver microsomes
Briefly: Cytochrome P450 inhibition assay (cocktail method, human liver microsomes), omeprazole hydroxylation. The class given is in vitro ADME. As for the experimental part:
as §2, §3, §4

Data set [8] deals with T4, CYP2C9 (Homo sapiens, UniProt P11712).
T4 construct: pooled human liver microsomes (HLMs, XTreme 200, XenoTech, Lenexa, KS, USA); tissue XenoTech XTreme 200; host or cells: pooled human liver microsomes
Briefly: Cytochrome P450 inhibition assay (cocktail method, human liver microsomes), tolbutamide 4-methylhydroxylation. In kind it is in vitro ADME. The protocol: as §2, §3, §4

T4 sequence (P11712 whole entry): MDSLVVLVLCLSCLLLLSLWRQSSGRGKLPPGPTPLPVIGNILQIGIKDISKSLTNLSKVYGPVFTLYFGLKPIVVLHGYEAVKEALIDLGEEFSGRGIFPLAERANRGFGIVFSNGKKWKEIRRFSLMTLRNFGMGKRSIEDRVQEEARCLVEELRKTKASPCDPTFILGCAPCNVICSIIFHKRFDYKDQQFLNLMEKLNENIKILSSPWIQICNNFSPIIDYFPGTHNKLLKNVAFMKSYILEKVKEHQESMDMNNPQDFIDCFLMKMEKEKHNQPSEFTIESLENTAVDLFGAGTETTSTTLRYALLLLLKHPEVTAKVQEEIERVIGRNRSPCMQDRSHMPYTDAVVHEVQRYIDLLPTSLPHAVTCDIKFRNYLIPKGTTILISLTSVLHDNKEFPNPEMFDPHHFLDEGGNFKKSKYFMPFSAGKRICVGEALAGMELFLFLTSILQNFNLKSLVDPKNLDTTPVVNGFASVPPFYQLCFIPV
T2 sequence (P10635 whole entry): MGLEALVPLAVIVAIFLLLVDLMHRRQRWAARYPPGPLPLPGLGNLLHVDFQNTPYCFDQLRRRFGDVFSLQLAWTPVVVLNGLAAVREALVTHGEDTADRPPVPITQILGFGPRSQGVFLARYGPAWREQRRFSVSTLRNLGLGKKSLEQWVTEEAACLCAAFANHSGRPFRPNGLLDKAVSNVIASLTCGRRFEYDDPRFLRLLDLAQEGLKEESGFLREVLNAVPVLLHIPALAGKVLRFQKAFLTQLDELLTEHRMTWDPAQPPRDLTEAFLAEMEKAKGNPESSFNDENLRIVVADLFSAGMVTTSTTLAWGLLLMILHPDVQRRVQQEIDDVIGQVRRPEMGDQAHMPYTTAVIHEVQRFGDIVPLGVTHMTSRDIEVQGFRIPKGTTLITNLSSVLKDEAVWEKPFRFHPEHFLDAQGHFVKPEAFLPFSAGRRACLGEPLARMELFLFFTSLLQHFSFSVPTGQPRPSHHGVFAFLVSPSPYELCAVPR
T3 sequence (P33261 whole entry): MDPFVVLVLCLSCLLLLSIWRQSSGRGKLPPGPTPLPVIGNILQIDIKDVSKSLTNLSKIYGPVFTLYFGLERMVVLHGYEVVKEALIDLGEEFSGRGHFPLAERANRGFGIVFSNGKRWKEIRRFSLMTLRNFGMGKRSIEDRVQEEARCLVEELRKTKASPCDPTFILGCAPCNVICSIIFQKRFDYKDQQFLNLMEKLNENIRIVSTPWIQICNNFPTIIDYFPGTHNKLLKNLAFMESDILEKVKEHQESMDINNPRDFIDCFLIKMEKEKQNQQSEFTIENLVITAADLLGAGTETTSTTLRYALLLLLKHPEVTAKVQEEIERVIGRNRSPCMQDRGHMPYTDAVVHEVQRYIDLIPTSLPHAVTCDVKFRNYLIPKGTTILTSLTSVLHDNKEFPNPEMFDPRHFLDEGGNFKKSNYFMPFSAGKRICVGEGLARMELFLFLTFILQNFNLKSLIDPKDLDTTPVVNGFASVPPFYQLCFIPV

With `C/C(=N\OCc1ccc(Br)cc1)c1cccc(OCC(=O)O)c1` [Compound 2a], in data set [1], the EC50 is 1.54 µM and the Emax is 165%.
As to `CC(=NOCc1cccc(C(F)(F)F)c1)c1cccc(OCC(=O)O)c1` [Compound 2b, 2-(3-(1-(((3-trifluoromethylbenzyl)oxy)imino)ethyl)phenoxy)acetic acid], in data set [1], the Emax stood at 131%.
Turning to `COc1ccc(CON=C(C)c2cccc(OCC(=O)O)c2)cc1` [Compound 2c, 2-(3-(1-(((4-methoxybenzyl)oxy)imino)ethyl)phenoxy)acetic acid], in data set [1], the EC50 stood at 9.88 µM and the Emax came out at 182%.
Turning to `CC(=NOCc1ccc(S(C)(=O)=O)cc1)c1cccc(OCC(=O)O)c1` [Compound 2e, 2-(3-(1-(((4-methylsulfonylbenzyl)oxy)imino)ethyl)phenoxy)acetic acid], the Emax in data set [1] was 98.7%.
Still for that read-out and setting: under `COC(=O)COc1cccc(/C(C)=N/OCc2ccc(Br)cc2)c1` [Compound 5a] stands 149%; under `COC(=O)COc1cccc(C(C)=NOCc2cccc(C(F)(F)F)c2)c1` [Compound 5b, Methyl 2-(3-(1-(((3-trifluoromethylbenzyl)oxy)imino)ethyl)phenoxy)acetate], 172%.
With `COC(=O)COc1cccc(C(C)=NOCc2ccc(OC)cc2)c1` [Compound 5c, Methyl 2-(3-(1-(((4-methoxybenzyl)oxy)imino)ethyl)phenoxy)acetate], in data set [1], a half-maximal response (EC50) required 6.32 µM and the Emax amounted to 152%.
`COC(=O)COc1cccc(C(C)=NOCc2ccc(S(C)(=O)=O)cc2)c1` [Compound 5e, Methyl 2-(3-(1-(((4-methylsulfonylbenzyl)oxy)imino)ethyl)phenoxy)acetate]: in data set [1], the Emax was 105%.
On to `CCO[C@H](Cc1cccc(/C(C)=N/OCc2ccc(Br)cc2)c1)C(=O)O` [KS15, reference compound], for which the IC50 is 14.9 µM in data set [2], 23.1 µM in data set [5], 20.2 µM in data set [7] and 9.1 µM in data set [8]. Moreover, the half-life at 1 μM in data set [3] is greater than 1 h. The compound also returned an IC50 at 10 min in data set [4] of 24 µM. Besides, the “Amplitude of cyclic Per2 expression” value in data set [6] is given as “attenuates amplitude”. In data set [6], the “Period of the rhythm” value is on record as “did not significantly alter the period”.
